Source: patent publication US20090023806A1, “ALUMINUM-STORAGE DISEASE IMPROVING AGENT” (AJINOMOTO CO. INC, priority 2006, published 2009)

What was measured:
[1] = Elimination of aluminum accumulated in rat thigh bones by repeated intravenous citric acid; format: in vivo; conditions: aluminum-loaded male rats, 0.75% citric acid solution i.v. 4 hours, three times a week for 4 weeks
Method: After aluminum accumulations were made in rat tissues, citric acid as an aluminum complexing agent was administered intravenously repeatedly to examine whether citric acid would eliminate the aluminum accumulated in the tissues.
Aluminum was administered to male rats intraperitoneally repeatedly once a day for 6 weeks at 2 mg/kg. Then, the rats were cannulated in the jugular vein.
From the jugular cannula, 0.75% citric acid solution was administered repeatedly taking the same dialysis time and frequency as in human; that is, for 4 hours continuously intravenously three times a week for 4 weeks.
For the control group, physiological saline was administered in the same means. Each group had 4 to 6 rats.
After the 4-week administration, thigh bones were collected from the rats to compare the aluminum levels in the thigh bones of both groups using the ratios of the aluminum peak area analyzed by the HPLC method against the peak area of internal standard substance as an indicator.

[2] = Citric acid concentration in patient blood plasma during dialysis with citric acid-containing dialysate; format: in vivo, human; conditions: 1.7 mEq/L of citric acid added to a dialysate during a dialysis treatment
Method: The present invention provides a dialysate comprising aluminum complexing agents. Preferably, the aluminum complexing agent is citric acid. […] Meanwhile, it had been confirmed that, when 1.7 mEq/L of citric acid had been added to a dialysate during a dialysis treatment, the citric acid concentration in the patient blood plasma had risen by about 3 mg/dL. In the following examples, how this phenomenon effects on the aluminum kinetics in vivo was examined.

[3] = Protein-binding rate of aluminum in rat plasma by ultrafiltration, with citric acid added; format: in vitro ADME; conditions: aluminum 50 μg/L, citric acid final concentration raised by 3 mg/dL, 37° C. 60 minutes, no citric acid: 23.4±10.0%
Method: Whether aluminum combined to proteins chelates with citric acid and is dissociated from the proteins in rat plasma was examined.
A used indicator was the protein-binding rates (by ultrafiltration method) when citric acid was added and when not added.
Aluminum was added to rat blood plasma to make the concentration 50 μg/L, and citric acid was added there to make the final concentration rise by 3 mg/dL. Then, it was incubated at 37° C. for 60 minutes. After that, the solution was centrifuged in a centrifuge (Centrifree) to obtain about 100 μL of filtrate. The aluminum concentrations of the added sample, the supernatant and the filtrate were measured respectively by the HPLC method (Chromatoracer Al; SHINO-TEST Corp.) to calculate the protein-binding rates.

## O=C(O)CC(O)(CC(=O)O)C(=O)O [citric acid]
[1]; P<0.05 Student's t-test
  thighbone aluminum levels compared with control group: statistically significantly lower
[1]; saline control 4.46±0.52, mean±S.D.
  thigh bone aluminum level: ratio of aluminum peak area (HPLC) against peak area of internal standard: 3.62±0.27
[2]
  rise of citric acid concentration in patient blood plasma: about 3 mg/dL
[3]
  free-aluminum percentage: 35.5±0.4%
